Columns and labels:
Experiment in all cases: KINOMEscan (ScanMAX) kinase profiling
Type in all cases: binding
panel of 468 kinases [1] = target: T1, panel of 468 kinases (Homo sapiens, UniProt P10721, D816V); settings: KIT(D816V); 1 μM; read-out: % control
T1 construct: purchased KINOMEscan (ScanMAX) service

panel of 468 kinases [2] = target: T2, panel of 468 kinases (Homo sapiens, UniProt Q92630); settings: DYRK2; 1 μM; read-out: % control
T2 construct: purchased KINOMEscan (ScanMAX) service
T2 sequence (Q92630 1-601): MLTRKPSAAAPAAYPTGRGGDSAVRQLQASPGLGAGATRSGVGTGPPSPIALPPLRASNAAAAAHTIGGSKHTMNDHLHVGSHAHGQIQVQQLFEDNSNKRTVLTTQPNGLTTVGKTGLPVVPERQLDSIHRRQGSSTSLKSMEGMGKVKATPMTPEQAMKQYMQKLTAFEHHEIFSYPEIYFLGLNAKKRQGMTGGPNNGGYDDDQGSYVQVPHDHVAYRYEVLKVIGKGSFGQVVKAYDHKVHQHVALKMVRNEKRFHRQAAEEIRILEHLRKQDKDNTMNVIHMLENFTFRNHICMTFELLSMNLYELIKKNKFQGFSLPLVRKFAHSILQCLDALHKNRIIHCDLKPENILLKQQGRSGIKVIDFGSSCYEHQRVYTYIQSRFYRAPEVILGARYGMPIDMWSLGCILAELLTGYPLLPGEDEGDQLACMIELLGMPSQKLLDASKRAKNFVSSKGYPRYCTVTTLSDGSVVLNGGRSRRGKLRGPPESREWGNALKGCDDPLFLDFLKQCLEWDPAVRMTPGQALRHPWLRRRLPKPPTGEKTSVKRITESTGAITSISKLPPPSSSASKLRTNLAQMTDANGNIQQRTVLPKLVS

panel of 468 kinases [3] = target: T3, panel of 468 kinases (Homo sapiens, UniProt O75914); settings: PAK3; 1 μM; read-out: % control
T3 construct: purchased KINOMEscan (ScanMAX) service

panel of 468 kinases [4] = target: T4, panel of 468 kinases (Homo sapiens, UniProt P11362); settings: FGFR1; 1 μM; read-out: % control
T4 construct: purchased KINOMEscan (ScanMAX) service

panel of 468 kinases [5] = target: T5, panel of 468 kinases (Homo sapiens, UniProt P43405); settings: SYK; 1 μM; read-out: % control
T5 construct: purchased KINOMEscan (ScanMAX) service

panel of 468 kinases [6] = target: T6, panel of 468 kinases (Homo sapiens, UniProt P15056, V600E); settings: BRAF(V600E); 1 μM; read-out: % control
T6 construct: purchased KINOMEscan (ScanMAX) service

panel of 468 kinases [7] = target: T7, panel of 468 kinases (Homo sapiens, UniProt P53350); settings: PLK1; 1 μM; read-out: % control
T7 construct: purchased KINOMEscan (ScanMAX) service

panel of 468 kinases [8] = target: T8, panel of 468 kinases (Homo sapiens, UniProt Q92772); settings: CDKL2; 1 μM; read-out: % control
T8 construct: purchased KINOMEscan (ScanMAX) service
T8 sequence (Q92772 1-493): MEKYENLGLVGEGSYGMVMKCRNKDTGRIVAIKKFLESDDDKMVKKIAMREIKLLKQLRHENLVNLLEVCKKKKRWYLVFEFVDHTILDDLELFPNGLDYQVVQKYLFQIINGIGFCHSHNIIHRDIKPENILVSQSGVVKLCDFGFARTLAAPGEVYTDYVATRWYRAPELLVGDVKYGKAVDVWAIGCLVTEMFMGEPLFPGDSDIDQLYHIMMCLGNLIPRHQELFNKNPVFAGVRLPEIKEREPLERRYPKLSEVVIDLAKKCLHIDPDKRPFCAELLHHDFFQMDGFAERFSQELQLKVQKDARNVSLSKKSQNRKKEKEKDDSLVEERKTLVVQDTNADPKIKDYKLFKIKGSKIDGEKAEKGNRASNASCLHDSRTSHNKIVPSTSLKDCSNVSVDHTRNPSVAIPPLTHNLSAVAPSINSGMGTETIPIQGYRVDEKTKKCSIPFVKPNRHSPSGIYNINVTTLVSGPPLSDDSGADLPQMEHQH

panel of 468 kinases [9] = target: T9, panel of 468 kinases (Homo sapiens, UniProt Q9H2G2); settings: SLK; 1 μM; read-out: % control
T9 construct: purchased KINOMEscan (ScanMAX) service

panel of 468 kinases [10] = target: T10, panel of 468 kinases (Homo sapiens, UniProt Q16832); settings: DDR2; 1 μM; read-out: % control
T10 construct: purchased KINOMEscan (ScanMAX) service
T10 sequence (Q16832 22-855): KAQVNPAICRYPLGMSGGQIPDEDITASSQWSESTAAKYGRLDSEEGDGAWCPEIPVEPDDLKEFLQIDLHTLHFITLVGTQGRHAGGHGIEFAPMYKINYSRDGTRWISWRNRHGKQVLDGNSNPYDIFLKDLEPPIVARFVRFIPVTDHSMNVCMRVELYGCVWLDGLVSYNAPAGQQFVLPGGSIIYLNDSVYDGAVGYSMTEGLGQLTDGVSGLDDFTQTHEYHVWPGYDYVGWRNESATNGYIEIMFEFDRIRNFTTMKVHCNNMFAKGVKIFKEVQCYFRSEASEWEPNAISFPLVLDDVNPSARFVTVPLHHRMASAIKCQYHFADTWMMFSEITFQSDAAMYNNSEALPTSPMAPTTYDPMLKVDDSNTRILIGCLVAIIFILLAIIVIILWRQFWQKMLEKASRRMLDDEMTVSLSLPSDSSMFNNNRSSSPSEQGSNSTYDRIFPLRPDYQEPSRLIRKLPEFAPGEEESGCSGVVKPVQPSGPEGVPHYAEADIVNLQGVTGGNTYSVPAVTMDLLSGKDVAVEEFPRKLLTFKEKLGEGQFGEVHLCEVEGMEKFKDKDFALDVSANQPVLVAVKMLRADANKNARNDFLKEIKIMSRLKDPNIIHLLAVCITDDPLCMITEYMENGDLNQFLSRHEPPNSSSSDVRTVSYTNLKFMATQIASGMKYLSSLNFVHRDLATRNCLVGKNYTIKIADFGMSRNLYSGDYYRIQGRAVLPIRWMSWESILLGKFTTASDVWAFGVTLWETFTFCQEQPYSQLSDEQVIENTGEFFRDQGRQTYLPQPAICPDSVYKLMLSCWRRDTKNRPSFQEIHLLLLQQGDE

T1 sequence (P10721 26-976 D816V): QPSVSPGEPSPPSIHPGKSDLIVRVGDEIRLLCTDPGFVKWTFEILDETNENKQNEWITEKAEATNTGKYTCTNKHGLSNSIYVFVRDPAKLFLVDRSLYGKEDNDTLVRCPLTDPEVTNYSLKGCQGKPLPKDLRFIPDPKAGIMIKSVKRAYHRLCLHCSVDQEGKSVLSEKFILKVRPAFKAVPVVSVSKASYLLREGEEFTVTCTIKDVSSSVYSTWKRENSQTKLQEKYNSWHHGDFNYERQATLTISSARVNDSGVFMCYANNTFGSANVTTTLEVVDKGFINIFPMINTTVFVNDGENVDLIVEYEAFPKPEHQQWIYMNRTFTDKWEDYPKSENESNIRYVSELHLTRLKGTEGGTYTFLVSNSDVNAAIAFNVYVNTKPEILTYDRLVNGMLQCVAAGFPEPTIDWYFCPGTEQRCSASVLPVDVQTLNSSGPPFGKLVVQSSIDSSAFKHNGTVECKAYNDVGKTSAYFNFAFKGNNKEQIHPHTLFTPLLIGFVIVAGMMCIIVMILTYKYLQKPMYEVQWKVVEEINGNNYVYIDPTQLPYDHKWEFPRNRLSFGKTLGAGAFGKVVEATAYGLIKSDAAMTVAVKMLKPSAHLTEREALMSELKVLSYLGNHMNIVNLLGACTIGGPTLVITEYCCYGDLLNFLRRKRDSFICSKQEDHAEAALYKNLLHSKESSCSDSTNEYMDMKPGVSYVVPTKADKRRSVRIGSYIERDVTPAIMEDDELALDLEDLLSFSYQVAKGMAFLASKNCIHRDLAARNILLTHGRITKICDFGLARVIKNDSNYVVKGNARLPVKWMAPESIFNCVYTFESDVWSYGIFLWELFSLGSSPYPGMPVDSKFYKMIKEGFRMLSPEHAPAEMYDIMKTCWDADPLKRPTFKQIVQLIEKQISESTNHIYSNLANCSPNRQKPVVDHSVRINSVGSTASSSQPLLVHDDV
T3 sequence (O75914 whole entry): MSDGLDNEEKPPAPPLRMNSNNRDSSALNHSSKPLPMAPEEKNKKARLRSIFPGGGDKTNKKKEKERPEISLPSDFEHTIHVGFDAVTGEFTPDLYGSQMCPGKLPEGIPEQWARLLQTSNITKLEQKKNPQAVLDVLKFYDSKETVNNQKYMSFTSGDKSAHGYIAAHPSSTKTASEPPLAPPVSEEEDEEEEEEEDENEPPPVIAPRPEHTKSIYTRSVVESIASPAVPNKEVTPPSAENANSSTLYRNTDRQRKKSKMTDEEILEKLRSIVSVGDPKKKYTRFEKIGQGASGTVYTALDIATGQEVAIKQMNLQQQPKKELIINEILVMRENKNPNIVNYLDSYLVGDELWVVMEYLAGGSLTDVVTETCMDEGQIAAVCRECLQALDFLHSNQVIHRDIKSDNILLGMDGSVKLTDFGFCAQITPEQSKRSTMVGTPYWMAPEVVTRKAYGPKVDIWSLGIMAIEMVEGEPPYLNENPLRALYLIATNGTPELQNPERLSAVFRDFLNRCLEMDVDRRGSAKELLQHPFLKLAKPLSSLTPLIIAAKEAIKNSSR
T9 sequence (Q9H2G2 whole entry): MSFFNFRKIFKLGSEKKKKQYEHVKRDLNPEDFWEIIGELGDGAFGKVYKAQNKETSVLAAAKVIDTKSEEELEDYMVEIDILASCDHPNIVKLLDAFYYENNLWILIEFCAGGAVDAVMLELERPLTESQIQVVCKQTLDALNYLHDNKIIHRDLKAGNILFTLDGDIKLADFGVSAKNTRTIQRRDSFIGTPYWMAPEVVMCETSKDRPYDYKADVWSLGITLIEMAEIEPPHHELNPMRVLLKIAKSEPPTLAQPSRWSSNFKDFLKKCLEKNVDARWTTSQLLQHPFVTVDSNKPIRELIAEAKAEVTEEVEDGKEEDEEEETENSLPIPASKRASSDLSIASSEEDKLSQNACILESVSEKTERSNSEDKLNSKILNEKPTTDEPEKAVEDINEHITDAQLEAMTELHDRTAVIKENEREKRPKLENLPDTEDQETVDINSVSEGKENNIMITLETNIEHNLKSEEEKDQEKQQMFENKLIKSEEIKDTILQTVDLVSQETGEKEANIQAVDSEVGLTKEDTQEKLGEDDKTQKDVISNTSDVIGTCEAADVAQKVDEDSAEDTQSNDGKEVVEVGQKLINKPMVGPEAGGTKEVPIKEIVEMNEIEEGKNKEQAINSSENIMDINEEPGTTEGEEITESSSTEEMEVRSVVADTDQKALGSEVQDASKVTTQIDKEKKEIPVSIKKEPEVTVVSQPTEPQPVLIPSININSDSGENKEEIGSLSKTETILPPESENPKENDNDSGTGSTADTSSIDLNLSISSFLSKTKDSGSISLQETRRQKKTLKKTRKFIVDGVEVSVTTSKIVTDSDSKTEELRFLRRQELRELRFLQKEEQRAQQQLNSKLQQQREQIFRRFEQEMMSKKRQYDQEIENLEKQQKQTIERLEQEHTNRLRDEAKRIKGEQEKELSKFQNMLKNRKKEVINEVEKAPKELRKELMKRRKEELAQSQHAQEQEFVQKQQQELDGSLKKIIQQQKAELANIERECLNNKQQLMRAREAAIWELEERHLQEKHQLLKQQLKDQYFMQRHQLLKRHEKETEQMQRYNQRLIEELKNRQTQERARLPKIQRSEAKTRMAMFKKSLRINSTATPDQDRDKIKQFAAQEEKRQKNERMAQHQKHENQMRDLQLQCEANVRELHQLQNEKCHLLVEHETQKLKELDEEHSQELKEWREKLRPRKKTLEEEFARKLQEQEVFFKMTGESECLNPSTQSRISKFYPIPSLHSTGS
T6 sequence (P15056 whole entry V600E): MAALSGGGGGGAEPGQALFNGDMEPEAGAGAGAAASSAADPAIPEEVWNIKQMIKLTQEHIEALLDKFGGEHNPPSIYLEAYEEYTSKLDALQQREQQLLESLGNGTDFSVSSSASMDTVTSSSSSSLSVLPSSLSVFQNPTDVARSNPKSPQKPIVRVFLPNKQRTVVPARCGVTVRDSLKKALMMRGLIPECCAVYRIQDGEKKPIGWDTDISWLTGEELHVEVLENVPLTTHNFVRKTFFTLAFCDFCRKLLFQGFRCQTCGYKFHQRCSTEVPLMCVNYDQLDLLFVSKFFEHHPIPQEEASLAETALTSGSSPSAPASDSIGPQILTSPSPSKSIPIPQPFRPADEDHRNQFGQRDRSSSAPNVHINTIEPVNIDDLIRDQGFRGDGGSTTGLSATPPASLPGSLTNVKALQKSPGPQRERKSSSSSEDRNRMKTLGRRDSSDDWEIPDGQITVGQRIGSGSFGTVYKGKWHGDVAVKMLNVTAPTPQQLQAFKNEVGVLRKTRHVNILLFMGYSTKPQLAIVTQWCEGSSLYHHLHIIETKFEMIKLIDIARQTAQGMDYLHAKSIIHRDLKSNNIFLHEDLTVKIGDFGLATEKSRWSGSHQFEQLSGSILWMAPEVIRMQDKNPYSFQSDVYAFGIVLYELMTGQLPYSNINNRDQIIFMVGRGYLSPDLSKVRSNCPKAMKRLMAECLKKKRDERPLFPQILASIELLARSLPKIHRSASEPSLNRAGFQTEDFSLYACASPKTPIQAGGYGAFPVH
T7 sequence (P53350 whole entry): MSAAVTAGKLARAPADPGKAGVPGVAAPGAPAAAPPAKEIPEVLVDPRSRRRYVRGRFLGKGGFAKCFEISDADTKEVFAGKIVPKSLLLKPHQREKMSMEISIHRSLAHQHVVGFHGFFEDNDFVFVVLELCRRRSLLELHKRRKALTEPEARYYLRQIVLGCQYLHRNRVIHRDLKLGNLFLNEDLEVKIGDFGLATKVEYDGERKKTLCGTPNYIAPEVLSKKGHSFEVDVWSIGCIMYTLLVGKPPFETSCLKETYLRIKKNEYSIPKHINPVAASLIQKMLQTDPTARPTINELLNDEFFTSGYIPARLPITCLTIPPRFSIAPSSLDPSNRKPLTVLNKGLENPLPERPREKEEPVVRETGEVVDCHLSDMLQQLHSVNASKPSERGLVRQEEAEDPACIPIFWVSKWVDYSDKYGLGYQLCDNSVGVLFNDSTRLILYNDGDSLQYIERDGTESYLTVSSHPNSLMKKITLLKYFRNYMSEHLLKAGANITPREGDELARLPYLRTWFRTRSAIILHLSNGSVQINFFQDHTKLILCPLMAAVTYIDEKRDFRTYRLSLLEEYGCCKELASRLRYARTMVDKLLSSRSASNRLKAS
T4 sequence (P11362 22-822): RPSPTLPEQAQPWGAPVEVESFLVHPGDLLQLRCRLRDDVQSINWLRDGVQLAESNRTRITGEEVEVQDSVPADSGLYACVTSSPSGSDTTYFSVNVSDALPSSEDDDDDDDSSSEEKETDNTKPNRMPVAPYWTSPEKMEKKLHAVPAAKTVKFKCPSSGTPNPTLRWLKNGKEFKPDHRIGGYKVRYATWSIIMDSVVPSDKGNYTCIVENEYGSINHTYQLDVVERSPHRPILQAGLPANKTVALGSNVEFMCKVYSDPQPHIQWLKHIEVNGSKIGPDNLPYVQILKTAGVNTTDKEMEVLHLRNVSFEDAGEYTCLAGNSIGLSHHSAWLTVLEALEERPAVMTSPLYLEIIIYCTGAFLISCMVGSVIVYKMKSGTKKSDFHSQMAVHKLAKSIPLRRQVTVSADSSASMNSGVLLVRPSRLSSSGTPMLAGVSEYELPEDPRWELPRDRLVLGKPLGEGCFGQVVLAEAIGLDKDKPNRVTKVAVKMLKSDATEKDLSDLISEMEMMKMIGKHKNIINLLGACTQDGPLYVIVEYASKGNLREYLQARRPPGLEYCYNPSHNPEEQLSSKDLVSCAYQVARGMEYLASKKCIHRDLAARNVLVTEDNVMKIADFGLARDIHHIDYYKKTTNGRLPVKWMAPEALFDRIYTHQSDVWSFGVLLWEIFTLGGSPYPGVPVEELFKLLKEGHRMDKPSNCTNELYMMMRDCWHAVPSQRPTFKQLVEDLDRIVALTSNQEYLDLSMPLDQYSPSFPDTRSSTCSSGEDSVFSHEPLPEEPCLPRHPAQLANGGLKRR

SMILES | remaining binding at 1 µM (panel of 468 kinases [1]) | remaining binding at 1 µM (panel of 468 kinases [2]) | remaining binding at 1 µM (panel of 468 kinases [3]) | remaining binding at 1 µM (panel of 468 kinases [4]) | remaining binding at 1 µM (panel of 468 kinases [5]) | remaining binding at 1 µM (panel of 468 kinases [6]) | remaining binding at 1 µM (panel of 468 kinases [7]) | remaining binding at 1 µM (panel of 468 kinases [8]) | remaining binding at 1 µM (panel of 468 kinases [9]) | remaining binding at 1 µM (panel of 468 kinases [10])
CNc1nc(Nc2ccc(S(=O)(=O)N3CCC(N4CCOCC4)CC3)cc2OC)nc2[nH]cc(Cl)c12 [Compound 12, 5-chloro-N2-(2-methoxy-4-((4-morpholinopiperidin-1-yl)sulfonyl)phenyl)-N4-methyl-7H-pyrrolo[2,3-d]pyrimidine-2,4-diamine] | 100% | 13% | 100% | 89% | 55% | 91% | 82% | 100% | 100% | 84%
CNc1nc(Nc2ccc(P3(=O)CCN(C4CCOCC4)CC3)cc2OC)nc2[nH]cc(Cl)c12 [Compound 77, 4-(4-((5-chloro-4-(methylamino)-7H-pyrrolo[2,3-d]pyrimidin-2-yl)amino)-3-methoxyphenyl)-1-(tetrahydro-2H-pyran-4-yl)-1,4-azaphosphinane 4-oxide] | 100% | 47% | 91% | 100% | 43% | 88% | 86% | 100% | 100% | 84%
CNc1nc(Nc2ccc(C(=O)N3CCC(N4CCOCC4)CC3)c3c2OCO3)nc2[nH]cc(Cl)c12 [Compound 75, (7-((5-chloro-4-(methylamino)-7H-pyrrolo[2,3-d]pyrimidin-2-yl)amino)benzo[d][1,3]dioxol-4-yl)(4-morpholinopiperidin-1-yl)methanone] | 98% | 14% | 97% | 94% | 35% | 100% | 78% | 100% | 100% | 93%

— US12479847B2 (DANA-FARBER CANCER INSTITUTE, INC., priority 2019, dated 2025)
